Measured values as given in patent US6335350B1, “Acetamide and substituted acetamide-containing thiourea inhibitors of herpes viruses” (American Home Products Corporation, priority 1998, dated 2002).
In brackets after ≈: the same amount, converted by molar mass.

Legend:
VZV strain Ellen = test: VZV Antiviral (ELISA) Assay; type: cell-based, varicella-zoster virus; conditions: human foreskin fibroblast cells; for IC50 / inhibition at 10 µg/mL: Human alphaherpesvirus 3, Fibroblast; for IC50: read-out: IC50 Ug/ml VZV; for inhibition at 10 µg/mL: read-out: % inhibition 10 ug/ml VZV, 10 ug/ml
In short: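 Antiviral IC50 is derived by comparing fluorescence with and without compound after a three-day culture of VZV-infected plus uninfected foreskin fibroblasts. Replication is quantified by ELISA against glycoprotein II, using a β-galactosidase secondary and methyl umbelliferyl-β-D-galactoside.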

HSV-1 = test: HSV Antiviral (ELISA) Assay; type: cell-based, herpes simplex virus type 1; conditions: Vero cells, HSV-1; for IC50: Human alphaherpesvirus 1, Vero, read-out: IC50 Ug/ml HSV
In short: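 Vero cells in DMEM/2% FBS pretreated with compound 30 min before HSV-1 infection (MOI 0.006), then ~24 h at 37 °C. Viral gD detected by ELISA with β-galactosidase secondary and 4-methylumbelliferyl-galactoside (ex 365/em 450 nm); IC50 from fluorescence versus untreated infected cells.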

HCMV wild-type = test: HCMV yield assay; type: cell-based, human cytomegalovirus; conditions: human foreskin fibroblasts; for IC50: Human betaherpesvirus 5, Fibroblast, read-out: IC50 Ug/ml HCMV
In short: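 HCMV wild-type infected human foreskin fibroblast monolayers at MOI typically 0.2 with varying compound concentrations; virus yield harvested at 3 days post-infection and titered on fibroblasts without inhibitor, plaques counted at 2 weeks. IC50 or IC90 = compound amount reducing yield titer by 50% or 90%.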

Row | Compound | IC50 (VZV strain Ellen) [µg/mL] | inhibition at 10 µg/mL (VZV strain Ellen) [%] | IC50 (HSV-1) [µg/mL] | IC50 (HCMV wild-type) [µg/mL] | % inhibition 10 ug/ml VZV (VZV strain Ellen) [%] | IC50 Ug/ml VZV (VZV strain Ellen) [Ug/ml] | IC50 Ug/ml HSV (HSV-1) [Ug/ml] | IC50 Ug/ml HCMV (HCMV wild-type) [Ug/ml]
1 | COc1cc(C)c(Cl)cc1NC(=S)Nc1ccc(NC(C)=O)cc1 [Example 199, N-{4-[3-(5-Chloro-2-methoxy-4-methyl-phenyl)-thioureido]-phenyl}-acetamide] | > 15 | 60 | 1.2 (≈ 3.3 µM) | > 10 | – | – | – | –
2 | CC(=O)Nc1ccc(NC(=S)Nc2cc(Cl)c(C)c(Cl)c2)cc1 [Example 892, N-{4-[3-(3,5-Dichloro-4-methyl-phenyl)-thioureido]-phenyl}-acetamide] | > 10 | 25 | 10 (≈ 27.2 µM) | 1 (≈ 2.72 µM) | – | – | – | –
3 | COc1cc(NC(=S)Nc2ccc(NC(C)=O)cc2)c(OC)cc1Cl [Example 110, N-{4-[3-(4-Chloro-2,5-dimethoxy-phenyl)-thioureido]-phenyl}-acetamide] | > 10 | 25 | 12 (≈ 31.6 µM) | 30 (≈ 79 µM) | – | – | – | –
4 | CC(=O)Nc1ccc(NC(=S)Nc2ccc(N(CCO)CCO)c(Cl)c2)cc1 [Example 905, N-[4-(3-{4-[Bis-(2-hydroxy-ethyl)-amino]-3-chloro-phenyl}-thioureido)-phenyl]-acetamide] | > 10 | 36 | > 50 | > 50 | – | – | – | –
5 | C=CCN(c1ccc(NC(=S)Nc2ccc(NC(C)=O)cc2)cc1Cl)C1CCCCC1 [Example 273, N-(4-{3-[4-(Allyl-cyclohexyl-amino)-3-chloro-phenyl]-thioureido}-phenyl)-cetamide] | – | – | – | – | 46 | >10 | >50 | >10
6 | CC(=O)Nc1ccc(NC(=S)Nc2ccc(NC(=O)CN(C)C)c(Cl)c2)cc1 [Example 360, N-{4-[3-(4-Acetylamino-phenyl)-thioureido]-2-chloro-phenyl}-2-dimethyl-amino-acetamide] | – | – | – | – | 16 | >10 | >10 | >10
7 | COc1cc(OC)c(NC(=S)Nc2ccc(NC(C)=O)nc2)cc1Cl [Example 314, N-{5-[3-(5-Chloro-2,4-dimethoxy-phenyl)-thioureido]-pyridin-2-yl}-acetamide] | > 10 | 34 | 2 (≈ 5.25 µM) | 30 (≈ 78.8 µM) | – | – | – | –
8 | COc1cc(OC)c(NC(=S)Nc2cc(O)c(NC(C)=O)cc2Cl)cc1Cl [Example 321, N-{5-Chloro-4-[3-(5-chloro-2,4-dimethoxy-phenyl)-thioureido]-2-hydroxy-phenyl}-acetamide] | > 10 | 28 | 7 (≈ 16.3 µM) | 18 (≈ 41.8 µM) | – | – | – | –
9 | CC(=O)Nc1ccc(NC(=S)Nc2ccc(C#N)c(Cl)c2)cc1 [Example 899, N-{4-[3-(3-Chloro-4-cyano-phenyl)-thioureido]-phenyl}-acetamide] | > 10 | 7 | 10 (≈ 29 µM) | > 10 | – | – | – | –
10 | CC(=O)Nc1ccc(NC(=S)Nc2ccc(-c3ccno3)c(Cl)c2)cc1 [Example 924, N-{4-[3-(3-Chloro-4-isoxazol-5-yl-phenyl)-thioureido]-phenyl}-acetamide] | > 10 | 4 | > 10 | 0.9 (≈ 2.33 µM) | – | – | – | –
11 | CC(=O)Nc1ccc(NC(=S)Nc2cc(Cl)cc(Cl)c2)cc1 [Example 933, N-{4-[3-(3,5-Dichloro-phenyl)-thioureido]-phenyl}-acetamide] | > 10 | 21 | > 10 | 1.2 (≈ 3.39 µM) | – | – | – | –
12 | CC(=O)Nc1ccc(NC(=S)Nc2ccc(OC(=O)c3ccccc3)cc2O)cc1 [Example 113, Benzoic acid 4-[3-(4-acetylamino-phenyl)-thioureido]-3-hydroxy-phenylester] | > 10 | 39 | 50 (≈ 119 µM) | 45 (≈ 107 µM) | – | – | – | –
13 | COC(=O)COc1cc(OC)c(NC(=S)Nc2ccc(NC(C)=O)cc2)cc1Cl [Example 217, {4-[3-(4-Acetylamino-phenyl)-thioureido]-2-chloro-5-methoxy-phenoxy}-acetic acid methyl ester] | > 10 | 10 | > 50 | > 10 | – | – | – | –
14 | N-{4-[3-(4-Acetylamino-phenyl)-thioureido]-2-chloro-phenyl}-2-thiomorpholin-4-yl-acetamide [Example 405] | – | – | – | – | 83 | 13 | >10 | >10
15 | CC(=O)Nc1ccc(NC(=S)Nc2ccc(N(C)C3CCN(C)C3)c(Cl)c2)cc1 (centres unmarked) [Example 845, N-[4-(3-{3-Chloro-4-[methyl-(1-methyl-pyrrolidin-3-yl)-amino]-phenyl}-thioureido)-phenyl]-acetamide] | > 10 | 25 | 20 (≈ 46.3 µM) | 1 (≈ 2.31 µM) | – | – | – | –
16 | COc1c(I)cc(NC(=S)Nc2ccc(NC(C)=O)cc2)c(OC)c1I [Example 893, N-{4-[3-(3,5-Diiodo-2,4-dimethoxy-phenyl)-thioureido]-phenyl}-acetamide] | 2.5 (≈ 4.19 µM) | 76 | 20 (≈ 33.5 µM) | 7 (≈ 11.7 µM) | – | – | – | –
17 | COc1cc(NCc2ccccc2)c(NC(=S)Nc2ccc(NC(C)=O)cc2)cc1Cl [Example 271, N-{4-[3-(2-Benzylamino-5-chloro-4-methoxy-phenyl)-thioureido]-phenyl}-acetamide] | 3.5 (≈ 7.69 µM) | 105 | 7 (≈ 15.4 µM) | > 10 | – | – | – | –
18 | CCOC(=O)COc1c(Cl)cc(NC(=S)Nc2ccc(NC(C)=O)cc2)cc1Cl [Example 884, {4-[3-(4-Acetylamino-phenyl)-thioureido]-2,6-dichloro-phenoxy}-acetic acid ethyl ester] | > 10 | 21 | > 50 | > 10 | – | – | – | –
19 | COc1ccc(NC(=S)Nc2ccc(NC(C)=O)cc2)c(OC)c1Cl [Example 179, N-{4-[3-(3-Chloro-2,4-dimethoxy-phenyl)-thioureido]-phenyl}-acetamide] | > 10 | 35 | 5 (≈ 13.2 µM) | > 50 | – | – | – | –
20 | CC(=O)Nc1ccc(NC(=S)Nc2ccc(NC(=O)CN3CCCCC3)c(Cl)c2)cc1 [Example 363, N-{4-[3-(4-Acetylamino-phenyl)-thioureido]-2-chloro-phenyl}-2-piperidin-1-yl-acetamide] | > 10 | 58 | > 10 | 7 (≈ 15.2 µM) | – | – | – | –
21 | CC(=O)Nc1ccc(NC(=S)Nc2cc(Cl)c(Cl)c(Cl)c2)cc1 [Example 936, N-{4-[3-(3,4,5-Trichloro-phenyl)-thioureido]-phenyl}-acetamide] | > 10 | 51 | 1.5 (≈ 3.86 µM) | 1 (≈ 2.57 µM) | – | – | – | –
22 | COC(=O)COc1c(Cl)cc(NC(=S)Nc2ccc(NC(C)=O)cc2)cc1Cl [Example 883, {4-[3-(4-Acetylamino-phenyl)-thioureido]-2,6-dichloro-phenoxy}-acetic acid methyl ester] | > 10 | 17 | 50 (≈ 113 µM) | > 10 | – | – | – | –
23 | COc1cc(OC)c(NC(=S)Nc2ccc(N(C)C(C)=O)cc2)cc1Cl [Example 99, N-{4-[3-(5-Chloro-2,4-dimethoxy-phenyl)-thioureido]-phenyl}-N-methyl-acetamide] | > 10 | 2 | 50 (≈ 127 µM) | > 50 | – | – | – | –
24 | CCCCOc1c(Cl)cc(NC(=S)Nc2ccc(NC(C)=O)cc2)cc1Cl [Example 177, N-{4-[3-(4-Butoxy-3,5-dichloro-phenyl)-thioureido]-phenyl}-acetamide] | > 10 | 19 | > 50 | 3.5 (≈ 8.21 µM) | – | – | – | –
25 | COc1ccc(NC(=S)Nc2ccc(NC(C)=O)cc2)c(OC)n1 [Example 896, N-{4-[3-(2,6-Dimethoxy-pyridin-3-yl)-thioureido]-phenyl}-acetamide] | > 10 | 17 | 12 (≈ 34.6 µM) | > 50 | – | – | – | –
26 | COc1c(NC(=S)Nc2ccc(NC(C)=O)cc2)cc(Cl)c(C)c1Cl [Example 876, N-{4-[3-(3,5-Dichloro-2-methoxy-4-methyl-phenyl)-thioureido]-phenyl}-acetamide] | > 10 | 58 | – | 1 (≈ 2.51 µM) | – | – | 10 | –
27 | CC(=O)Nc1ccc(NC(=S)Nc2ccc([N+](=O)[O-])cc2)cc1 [Example 879, N-{4-[3-(4-Nitro-phenyl)-thioureido]-phenyl}-acetamide] | > 10 | 16 | > 50 | > 10 | – | – | – | –
28 | CC(=O)Nc1ccc(NC(=S)Nc2ccccc2[N+](=O)[O-])cc1 [Example 878, N-{4-[3-(2-Nitro-phenyl)-thioureido]-phenyl}-acetamide] | > 10 | 23 | 50 (≈ 151 µM) | 40 (≈ 121 µM) | – | – | – | –
29 | CCCN(CCC)c1ccc(NC(=S)Nc2ccc(NC(C)=O)cc2)cc1Cl [Example 272, N-{4-[3-(3-Chloro-4-dipropylamino-phenyl)-thioureido]-phenyl}-acetamide] | > 10 | 50 | > 50 | > 10 | – | – | – | –
